In brackets after ≈: the same amount, converted by molar mass.
What was measured:
[1] = target: human Fibroblast activation protein alpha (hFAP) (Homo sapiens (Human), UniProt Q12884); experiment: hFAP inhibition assay (tight binders); format: biochemical; conditions: Ala-Pro-AMC 20 μM, n = 1 or geometric mean n = 2-6; also: hFAP 2.4 pM
Experimental: The plates were read on a PHERAstar® reader with excitation 340 nm and emission 460 nm. Data were analyzed in Genedata Screener®. IC50 values were determined by plotting % inhibition versus log compound concentration and using a one site dose response model.

[2] = target: Prolyl endopeptidase, Prolyl Oligopeptidase (hPREP) (Homo sapiens (Human), UniProt P48147); experiment: hPrep inhibition assay; format: biochemical; conditions: hPREP 0.6 nM, Z-Gly-Pro-amino-methylcoumarin 50 μM; read-out: PREP IC50
Sequence of Prolyl endopeptidase, Prolyl Oligopeptidase (hPREP) (P48147 whole entry): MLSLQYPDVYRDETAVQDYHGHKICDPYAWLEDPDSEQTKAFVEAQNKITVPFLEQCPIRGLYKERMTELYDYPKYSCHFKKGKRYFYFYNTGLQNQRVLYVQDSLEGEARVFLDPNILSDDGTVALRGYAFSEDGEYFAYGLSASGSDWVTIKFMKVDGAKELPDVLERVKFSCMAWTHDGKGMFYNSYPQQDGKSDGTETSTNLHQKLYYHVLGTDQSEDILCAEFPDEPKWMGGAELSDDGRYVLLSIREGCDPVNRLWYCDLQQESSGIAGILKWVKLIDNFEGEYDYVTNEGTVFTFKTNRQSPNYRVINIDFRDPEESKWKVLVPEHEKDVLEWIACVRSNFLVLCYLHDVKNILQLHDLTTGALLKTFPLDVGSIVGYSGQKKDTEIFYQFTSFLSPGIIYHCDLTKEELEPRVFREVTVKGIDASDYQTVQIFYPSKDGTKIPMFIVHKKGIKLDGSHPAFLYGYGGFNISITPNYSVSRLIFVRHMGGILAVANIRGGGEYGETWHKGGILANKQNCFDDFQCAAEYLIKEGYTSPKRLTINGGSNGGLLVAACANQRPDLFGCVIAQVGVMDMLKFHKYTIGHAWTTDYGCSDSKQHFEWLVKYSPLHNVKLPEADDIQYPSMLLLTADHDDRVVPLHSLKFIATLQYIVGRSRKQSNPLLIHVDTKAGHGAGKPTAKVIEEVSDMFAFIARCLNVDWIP
How it was run: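 Recombinant human PREP at 0.6 nM final with Z-Gly-Pro-AMC substrate at 50 μM final in Tris-HCl pH 7.5, NaCl, Triton X-100, glutathione; 15 min rt preincubation then 20 min rt reaction in dark. AMC fluorescence (ex 340/em 460 nm); IC50 from one-site dose-response fit of % inhibition.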

Kinetic solubility = conditions: kinetic from dmso stock
Experimental: Kinetic solubility was measured as described in Comput Aided Mol Des 2015, 29, 795.

Caco-2 cell permeability = conditions: human
Experimental: Caco-2 cell permeability was measured as described in Mol Pharm 2017, 14, 1601.

[3] = Metabolic stability in rat hepatocytes (rHep); conditions: n = 1 or geometric mean of n = 2-3
[4] = Metabolic stability in human liver microsomes (HLM); conditions: for microsomal CLint: human
Experimental: Metabolic stability in HLM was measured as described in J Comput Aided Mol Des 2015, 29, 795.

hFAP (M39-A757) = hFAP (M39-A757) (Homo sapiens (Human), UniProt Q12884); experiment: hFAP binding assay (surface plasmon resonance); conditions: SPR, 20° C.; for hFAP Binding assay k(off) / hFAP Binding assay k(on): single cycle kinetics; for Kd: n = 1 or geometric mean n = 2-4
Sequence of hFAP (M39-A757) (Q12884 39-757): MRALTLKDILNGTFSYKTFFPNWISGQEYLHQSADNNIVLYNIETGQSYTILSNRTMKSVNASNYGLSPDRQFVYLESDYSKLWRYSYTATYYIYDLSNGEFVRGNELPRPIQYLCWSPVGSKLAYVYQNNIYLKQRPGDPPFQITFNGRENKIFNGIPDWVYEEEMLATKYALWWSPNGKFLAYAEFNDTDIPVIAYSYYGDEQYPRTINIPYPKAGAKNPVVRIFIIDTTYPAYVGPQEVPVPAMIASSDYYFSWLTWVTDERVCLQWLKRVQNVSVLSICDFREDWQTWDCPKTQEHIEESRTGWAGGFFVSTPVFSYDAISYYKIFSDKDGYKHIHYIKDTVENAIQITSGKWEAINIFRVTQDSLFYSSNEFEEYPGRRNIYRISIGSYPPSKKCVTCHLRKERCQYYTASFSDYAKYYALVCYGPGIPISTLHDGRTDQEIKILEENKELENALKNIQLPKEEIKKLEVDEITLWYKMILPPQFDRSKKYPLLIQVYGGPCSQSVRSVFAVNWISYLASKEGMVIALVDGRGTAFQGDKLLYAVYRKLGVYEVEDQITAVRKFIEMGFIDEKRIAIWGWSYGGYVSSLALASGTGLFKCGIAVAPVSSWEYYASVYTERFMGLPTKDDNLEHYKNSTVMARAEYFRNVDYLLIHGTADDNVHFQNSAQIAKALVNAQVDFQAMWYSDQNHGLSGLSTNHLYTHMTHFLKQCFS
Experimental: Compounds were tested in a direct binding assay using 8K surface plasmon resonance biosensor (GE Healthcare) at 20° C. Immobilization of hFAP (M39-A757) on a CMD200M sensor chip (Xantec) was performed using standard amine coupling procedure in immobilization buffer (10 mM HEPES, 150 mM NaCl, 0.05% Tween20, pH 7.4). The surface was washed with 10 mM NaOH, 1M NaCl before being activated with EDC/NHS (GE Healthcare), followed by immobilization of hFAP (in 10 mM Acetate pH 5.0). Finally, the surface was deactivated by ethanolamine. Immobilization levels of hFAP were around 4000-6000 RU. The reference spot was treated as described, omitting the injection of hFAP. Compound concentration series were injected over the immobilized protein in increasing concentrations (2-500 nM) using single cycle kinetics in running buffer (20 mM TRIS, 150 mM NaCl, 0.05% Tween20, 1% DMSO, pH 7.4). Interaction models were fitted globally to the experimental traces, enabling determination of kon, koff and Kd.

[5] = Solubility, kinetic solubility, n = 1 or average of n = 2-3
[6] = HLM CLint, n = 1 or average of n = 2-3

Sequence of human Fibroblast activation protein alpha (hFAP) (Q12884 38-760): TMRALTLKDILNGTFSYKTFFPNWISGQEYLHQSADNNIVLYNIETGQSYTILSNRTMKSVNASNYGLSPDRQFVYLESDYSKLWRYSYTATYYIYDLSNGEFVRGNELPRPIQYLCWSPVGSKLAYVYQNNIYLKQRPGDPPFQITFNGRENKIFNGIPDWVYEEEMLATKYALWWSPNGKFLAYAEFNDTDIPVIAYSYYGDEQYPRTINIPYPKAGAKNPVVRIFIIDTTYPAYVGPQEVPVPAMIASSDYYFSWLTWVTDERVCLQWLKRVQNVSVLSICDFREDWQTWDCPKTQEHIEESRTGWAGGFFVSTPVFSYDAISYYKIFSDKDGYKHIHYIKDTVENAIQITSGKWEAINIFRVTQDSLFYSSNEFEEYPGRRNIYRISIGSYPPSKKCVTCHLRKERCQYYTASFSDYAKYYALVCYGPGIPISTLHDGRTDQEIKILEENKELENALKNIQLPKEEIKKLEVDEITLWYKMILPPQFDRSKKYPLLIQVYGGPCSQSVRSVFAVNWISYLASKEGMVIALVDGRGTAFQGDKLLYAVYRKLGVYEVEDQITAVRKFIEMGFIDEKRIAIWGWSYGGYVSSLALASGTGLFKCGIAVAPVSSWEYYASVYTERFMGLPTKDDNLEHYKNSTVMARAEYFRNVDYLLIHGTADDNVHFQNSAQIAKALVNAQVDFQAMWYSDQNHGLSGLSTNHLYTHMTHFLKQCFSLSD

| Compound | IC50 [1] [nM] | IC50 [2] [nM] | solubility (Kinetic solubility; [5]) [µM] | Papp (Caco-2 cell permeability) [×10⁻⁶ cm/s] | Papp A→B (Caco-2 cell permeability) [×10⁻⁶ cm/s] | Papp B→A (Caco-2 cell permeability) [×10⁻⁶ cm/s] | rHep CLint [3] [μL/min/1E6] | microsomal CLint [4, 6] [µL/min/mg] | efflux ratio (Caco-2 cell permeability) | hFAP Binding assay k(off) (hFAP (M39-A757)) [s⁻¹] | hFAP Binding assay k(on) (hFAP (M39-A757)) [M⁻¹ s⁻¹] | Kd (hFAP (M39-A757)) [nM] | HLM CLint ([4]; n = 1 or average of n = 2-3) [µL/min/mg] | solubility (Kinetic solubility) [µM] | microsomal CLint [4] [µL/min/mg] |
| --- | --- | --- | --- | --- | --- | --- | --- | --- | --- | --- | --- | --- | --- | --- | --- |
| N#C[C@@H]1CSCN1C(=O)CNC(=O)c1ccnc2ccc(-n3ccc4c3CCCC4)cc12 [Example 219, (R)—N-(2-(4-Cyanothiazolidin-3-yl)-2-oxoethyl)-6-(4,5,6,7-tetrahydro-1H-indol-1-yl)quinoline-4-carboxamide] | 0.11 | 230 | 2.5 (≈ 1.11 µg/mL) |  |  |  | 75 | 160 |  | 0.0002 | 2400000 | 0.083 |  |  |  |
| Cc1ccn(-c2ccc3nccc(C(=O)NCC(=O)N4CSC[C@H]4C#N)c3c2)c1 [Example 121, (R)—N-(2-(4-Cyanothiazolidin-3-yl)-2-oxoethyl)-6-(3-methyl-1H-pyrrol-1-yl)quinoline-4-carboxamide] | 0.15 | 88 | 44 (≈ 17.8 µg/mL) |  |  |  | 13 | 43 |  | 0.000016 | 1100000 | 0.012 |  |  |  |
| CC1(C2CC2)CN(c2ccc3nccc(C(=O)NCC(=O)N4CSC[C@H]4C#N)c3c2)C1 [Example 134, (R)—N-(2-(4-Cyanothiazolidin-3-yl)-2-oxoethyl)-6-(3-cyclopropyl-3-methylazetidin-1-yl)quinoline-4-carboxamide] | 0.13 | 620 | 71 (≈ 30.9 µg/mL) |  |  |  | 74 | 210 |  | 0.000080 | 620000 | 0.13 |  |  |  |
| N#C[C@@H]1CSCN1C(=O)CNC(=O)c1ccnc2ccc(N3CC(CCF)C3)cc12 [Example 146, (R)—N-(2-(4-Cyanothiazolidin-3-yl)-2-oxoethyl)-6-(3-(2-fluoroethyl)-azetidin-1-yl)quinoline-4-carboxamide] | 0.15 | 450 | 24 (≈ 10.3 µg/mL) |  |  |  | 4.3 | 11 |  | 0.00017 | 1400000 | 0.12 |  |  |  |
| N#C[C@@H]1CSCN1C(=O)CNC(=O)c1ccnc2ccc(N3CC4(CCS4)C3)cc12 [Example 222, (R)—N-(2-(4-Cyanothiazolidin-3-yl)-2-oxoethyl)-6-(1-thia-6-azaspiro[3.3]heptan-6-yl)quinoline-4-carboxamide] | 0.087 | 490 |  |  |  |  | 4.2 |  |  |  |  | 0.022 |  | 120 (≈ 52.7 µg/mL) | 40 |
| N#C[C@@H]1CSCN1C(=O)CNC(=O)c1ccnc2ccc(-n3ccnc3-c3ccccc3)cc12 [Example 217, (R)—N-(2-(4-Cyanothiazolidin-3-yl)-2-oxoethyl)-6-(2-phenyl-1H-imidazol-1-yl)quinoline-4-carboxamide] | 0.67 | 310 | 410 (≈ 192 µg/mL) |  |  |  | 37 | > 300 |  | 0.0013 | 1800000 | 0.71 |  |  |  |
| N#C[C@@H]1CSCN1C(=O)CNC(=O)c1ccnc2ccc(N3CCC4(CCOCC4)CC3)cc12 [Example 162, (R)—N-(2-(4-cyanothiazolidin-3-yl)-2-oxoethyl)-6-(3-oxa-9-azaspiro[5.5]undecan-9-yl)quinoline-4-carboxamide] | 0.053 | 280 |  |  |  |  | 3.4 |  |  | 0.000028 | 1900000 | 0.018 |  | 140 (≈ 67.1 µg/mL) | 44 |
| COC[C@H]1[C@H](C)OCCN1c1ccc2nccc(C(=O)NCC(=O)N3CSC[C@H]3C#N)c2c1 [Example 96, N-(2-((R)-4-Cyanothiazolidin-3-yl)-2-oxoethyl)-6-((2S,3S)-3-(methoxymethyl)-2-methylmorpholino)quinoline-4-carboxamide] | 0.17 | 880 | > 1000 |  |  |  | 15 | 71 |  | 0.00022 | 4000000 | 0.067 |  |  |  |

Further lines, with some results ahead:

| IC50 [1] [nM] | IC50 [2] [nM] | solubility (Kinetic solubility; [5]) [µM] | Papp (Caco-2 cell permeability) [×10⁻⁶ cm/s] | Papp A→B (Caco-2 cell permeability) [×10⁻⁶ cm/s] | Papp B→A (Caco-2 cell permeability) [×10⁻⁶ cm/s] | rHep CLint [3] [μL/min/1E6] | microsomal CLint [4, 6] [µL/min/mg] | efflux ratio (Caco-2 cell permeability) | hFAP Binding assay k(off) (hFAP (M39-A757)) [s⁻¹] | hFAP Binding assay k(on) (hFAP (M39-A757)) [M⁻¹ s⁻¹] | Kd (hFAP (M39-A757)) [nM] | HLM CLint ([4]; n = 1 or average of n = 2-3) [µL/min/mg] | Compound | solubility (Kinetic solubility) [µM] | microsomal CLint [4] [µL/min/mg] |
| --- | --- | --- | --- | --- | --- | --- | --- | --- | --- | --- | --- | --- | --- | --- | --- |
| 0.078 | 600 | > 1000 | 2 | 34 | 17 | 2.8 | < 3 |  |  |  |  |  | N#C[C@@H]1CSCN1C(=O)CNC(=O)c1ccnc2ccc(N3CCC(=O)CC3)cc12 [Example 230, (R)—N-(2-(4-cyanothiazolidin-3-yl)-2-oxoethyl)-6-(4-oxopiperidin-1-yl)quinoline-4-carboxamide] |  |  |
| 0.091 | 1000 | 240 (≈ 102 µg/mL) |  | 0.13 | 9.5 | <1 | < 3 | 74 |  |  |  |  | C[C@@]1(O)CCN(c2ccc3nccc(C(=O)NCC(=O)N4CSC[C@H]4C#N)c3c2)C1 [Example 167, N-(2-((R)-4-Cyanothiazolidin-3-yl)-2-oxoethyl)-6-((R)-3-hydroxy-3-methylpyrrolidin-1-yl)quinoline-4-carboxamide] |  |  |
| 0.074 | 710 | 940 (≈ 451 µg/mL) |  |  |  | 26 |  |  | 0.00011 | 1200000 | 0.12 | 64 | N#C[C@@H]1CSCN1C(=O)CNC(=O)c1ccnc2ccc(N3CCOC[C@@H]3C(F)(F)F)cc12 (single isomer, unassigned) [Example 84, N-(2-((R)-4-Cyanothiazolidin-3-yl)-2-oxoethyl)-6-((R*)-3-(trifluoromethyl)-morpholino)quinoline-4-carboxamide] |  |  |
| 0.059 | 420 | 3.4 (≈ 1.44 µg/mL) |  |  |  | 12 | 53 |  | 0.0002 | 6600000 | 0.031 |  | CC(C)C1CN(c2ccc3nccc(C(=O)NCC(=O)N4CSC[C@H]4C#N)c3c2)C1 [Example 148, (R)—N-(2-(4-Cyanothiazolidin-3-yl)-2-oxoethyl)-6-(3-isopropylazetidin-1-yl)quinoline-4-carboxamide] |  |  |
| 0.069 | 460 | 33 (≈ 15.4 µg/mL) |  |  |  | 13 | 40 |  | 0.000057 | 1600000 | 0.036 |  | N#C[C@@H]1CSCN1C(=O)CNC(=O)c1ccnc2ccc(N3CC(F)(C(F)(F)F)C3)cc12 [Example 143, (R)—N-(2-(4-Cyanothiazolidin-3-yl)-2-oxoethyl)-6-(3-fluoro-3-(trifluoromethyl)azetidin-1-yl)quinoline-4-carboxamide] |  |  |
| 0.061 | 300 | 21 (≈ 9.4 µg/mL) |  |  |  | 4.8 | < 3 |  | 0.000050 | 2000000 | 0.036 |  | N#C[C@@H]1CSCN1C(=O)CNC(=O)c1ccnc2ccc(N3CC(OC(F)F)C3)cc12 [Example 136, (R)—N-(2-(4-Cyanothiazolidin-3-yl)-2-oxoethyl)-6-(3-(difluoromethoxy)-azetidin-1-yl)quinoline-4-carboxamide] |  |  |
| 0.038 | 550 | 400 (≈ 187 µg/mL) |  |  |  | 5.3 | 94 |  | 0.000033 | 1500000 | 0.022 |  | CCC1(OC)CCN(c2ccc3nccc(C(=O)NCC(=O)N4CSC[C@H]4C#N)c3c2)CC1 [Example 191, (R)—N-(2-(4-Cyanothiazolidin-3-yl)-2-oxoethyl)-6-(4-ethyl-4-methoxy-piperidin-1-yl)quinoline-4-carboxamide] |  |  |
| 0.1 | 560 | 8.9 (≈ 4.13 µg/mL) |  |  |  | 4.7 | 17 |  | 0.00029 | 3100000 | 0.1 |  | N#C[C@@H]1CSCN1C(=O)CNC(=O)c1ccnc2ccc(N3CC(CC(F)(F)F)C3)cc12 [Example 158, (R)—N-(2-(4-Cyanothiazolidin-3-yl)-2-oxoethyl)-6-(3-(2,2,2-trifluoroethyl)-azetidin-1-yl)quinoline-4-carboxamide] |  |  |

Source: patent US20230312550A1, “N-(2-(4-CYANOTHIAZOLIDIN-3-YL)-2-OXOETHYL)-QUINOLINE-4-CARBOXAMIDES” (AstraZeneca AB, priority 2020, published 2023)
